pIC50: −log10 of the molar value.
System: NCI-H1876 tumor spheroid viability
Experiment: Anticancer human tumor NCI-H1876 cell line growth inhibition;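 note: spheroids exposed to compounds for seven days before the viability read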;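 for viability, T/C: percent of DMSO vehicle control viability so 100% = vehicle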
Conditions: spheroids with HUVEC and MSC; for pIC50: curve of first compound; for viability, T/C: stronger effect = lower value
From the text: Multicellular complex tumor spheroid response to DNA repair inhibitors in combination with DNA-damaging drugs
This study explores the anticancer activities of DNA-damaging drugs and inhibitors of DNA damage repair, both as single agents and in combinations. Complex tumor spheroids comprised of malignant cells, endothelial cells and mesenchymal stem cells served as an in vitro model for human solid tumors. This model system incorporates physiologically relevant features and patient-derived or established malignant cell lines with clinically relevant genetic alterations from many tumor types. Twenty-six patient-derived or established malignant cell lines were evaluated representing sarcoma, melanoma, small cell lung cancer (SCLC), non-small cell lung cancer (NSCLC), as well as bladder, ovarian and pancreatic cancers. The concentration ranges selected for each drug and investigational agent were based upon clinically achievable concentrations if the clinical Cmax of the agent was known.
Compounds. The drugs and compounds olaparib (NSC753686), talazoparib (NSC767125), berzosertib (NSC777718), elimusertib (NSC800525), nedisertib (NSC802822), VX-984 (NSC792969), AZD-1390 (NSC803789), temozolomide (NSC362856), topotecan (NSC609699), trabectedin (NSC813783), staurosporine (NSC755774), and gemcitabine (NSC613327) were obtained from the National Cancer Institute (NCI) Developmental Therapeutics Program Chemical Repository. The FDA-approved anticancer drug set is available from the Developmental Therapeutics Program at https://dtp.cancer.gov/organization/dscb/obtaining/available_plates.htm. […] The stock solutions were prepared in dimethyl sulfoxide (DMSO, Sigma-Aldrich, St. Louis, MO, cat. D2650) at 400-fold the tested concentration and stored at -70 degrees C. Prior to their use, the stock solutions were diluted in fresh medium and the final DMSO concentration in the assay was 0.25% (v/v). All drugs and investigational agents were tested over a range starting from a high concentration at or near the clinical Cmax and decreasing in half-log increments. If the clinical Cmax for an agent had not been determined, the highest concentration tested was 10 microM.
Cell Lines. The patient-derived cancer cell (PDC) lines: 156681-154-R-J1-PDC, 283228-195-R-J1-PDC, 287954-098-R-J1-PDC, 292921-168-R-J2-PDC, 349418-098-R-PDC, 425362-245-T-J1-PDC, 556581-035-R-J1-PDC, and BL0293-F563-PDC were received from the NCI Patient-Derived Models Repository (PDMR, https://pdmr.cancer.gov). The established cell lines HS-SY-2 (RRID:CVCL_8719), MPNST, and SYO-1 (RRID:CVCL_7146) were obtained from the Sloan Kettering Institute. The alveolar soft parts sarcoma cell line ASPS-1 (RRID:CVCL_S738) was established at the NCI and grown from internal seed stocks. The following established cell lines were purchased from the American Type Culture Collection (ATCC, Manassas, VA): G-401 (ATCC, cat. CRL-1441, RRID:CVCL_0270), SW982 (ATCC, cat. HTB-93, RRID:CVCL_1734), VA-ES-BJ (ATCC, cat. CRL-2138, RRID:CVCL_1785), NCI-H719 (ATCC, cat. CRL-5837, RRID:CVCL_1582), NCI-H196 (ATCC, cat. CRL-5823, RRID:CVCL_1509), NCI-H841 (ATCC, cat. CRL-5845, RRID:CVCL_1595), NCI-H1618 (ATCC, cat. CRL-5879, RRID:CVCL_1480), NCI-H1876 (ATCC, cat. CRL-5902, RRID:CVCL_1503), DMS 114 (ATCC, cat. CRL-2066; RRID:CVCL_1174), NCI-H211 (ATCC, cat. CRL-5824; RRID:CVCL_1529), and SW 1271 (ATCC, cat. CRL-2177, RRID:CVCL_1716). The small cell lung cancer cell line COR-L88 was purchased from Sigma-Aldrich (cat. 92031917-1VL, RRID:CVCL_1141). The non-small cell lung cancer cell lines NCI-H226 (RRID:CVCL_1544) and NCI-H322M (RRID:CVCL_1557) were established at the NCI and grown from internal seed stocks. Pooled donor human umbilical vein endothelial cells (HUVEC, Lonza, cat. CC-2519) and human mesenchymal stem cells (hMSC, Lonza, cat. PT-2501) were purchased from Lonza (Walkersville, MD).
Cell Culture. All cells were maintained in an incubator at 37 degrees C and 5% CO2 with 95% humidity. […]

Compound `Cc1sc2c(c1C)C(c1ccc(Cl)cc1)=NC(CC(=O)Nc1ccc(O)cc1)c1nnc(C)n1-2` (stereo not given) + CC[C@@]1(O)C(=O)OCc2c1cc1n(c2=O)Cc2cc3c(CN(C)C)c(O)ccc3nc2-1 has a pIC50 (second compound 0.003 µM) of 7.50, a pIC50 (second compound 0.00949 µM) of over 8.02 and a pIC50 (second compound 0.03 µM) of over 8.02. For the same compound, the pIC50 (second compound 0.0949 µM) was over 8.02, the pIC50 (second compound 0.3 µM) was over 8.02 and the viability, T/C (second compound 0.003 µM, first compound 0.00949 µM) was 70.7%. It also gave a viability, T/C (second compound 0.003 µM, first compound 0.03 µM) of 52.3%, a viability, T/C (second compound 0.003 µM, first compound 0.0949 µM) of 25.6% and a viability, T/C (second compound 0.003 µM, first compound 0.3 µM) of 15.8%. It also gave a viability, T/C (second compound 0.003 µM, first compound 0.949 µM) of 8.93%, a viability, T/C (second compound 0.003 µM, first compound 3 µM) of 5.64% and a viability, T/C (second compound 0.00949 µM, first compound 0.00949 µM) of 30.6%. The viability, T/C (second compound 0.00949 µM, first compound 0.03 µM) was 46.8%, the viability, T/C (second compound 0.00949 µM, first compound 0.0949 µM) was 16.6% and the viability, T/C (second compound 0.00949 µM, first compound 0.3 µM) was 12.2%. It also gave a viability, T/C (second compound 0.00949 µM, first compound 0.949 µM) of 7.36%, a viability, T/C (second compound 0.00949 µM, first compound 3 µM) of 5.57% and a viability, T/C (second compound 0.03 µM, first compound 0.00949 µM) of 12.2%. It also gave a viability, T/C (second compound 0.03 µM, first compound 0.03 µM) of 30%, a viability, T/C (second compound 0.03 µM, first compound 0.0949 µM) of 12.2% and a viability, T/C (second compound 0.03 µM, first compound 0.3 µM) of 10.8%. For the same compound, the viability, T/C (second compound 0.03 µM, first compound 0.949 µM) was 5.27%, the viability, T/C (second compound 0.03 µM, first compound 3 µM) was 4.32% and the viability, T/C (second compound 0.0949 µM, first compound 0.00949 µM) was 7.77%. The viability, T/C (second compound 0.0949 µM, first compound 0.03 µM) was 8.11%, the viability, T/C (second compound 0.0949 µM, first compound 0.0949 µM) was 8.71% and the viability, T/C (second compound 0.0949 µM, first compound 0.3 µM) was 7.87%. For the same compound, the viability, T/C (second compound 0.0949 µM, first compound 0.949 µM) was 5.5%, the viability, T/C (second compound 0.0949 µM, first compound 3 µM) was 4% and the viability, T/C (second compound 0.3 µM, first compound 0.00949 µM) was 3.46%. The viability, T/C (second compound 0.3 µM, first compound 0.03 µM) was 3.69%, the viability, T/C (second compound 0.3 µM, first compound 0.0949 µM) was 3.67% and the viability, T/C (second compound 0.3 µM, first compound 0.3 µM) was 3.02%. It also gave a viability, T/C (second compound 0.3 µM, first compound 0.949 µM) of 2.65% and a viability, T/C (second compound 0.3 µM, first compound 3 µM) of 1.56%.

Reference: PubChem BioAssay AID1845207 (Molecular Pharmacology Branch, DTP, NCI, 2023)
